# Reference: patent US10968198B2, “Biaryltriazole inhibitors of macrophage migration inhibitory factor” (YALE UNIVERSITY, priority 2015, dated 2021)
# Biological target: human MIF (Homo sapiens (Human), UniProt P14174)
# Experiment: X-ray crystallography of complexes with human MIF
# Conditions: co-crystal or soak
# Protocol: The solution was centrifuged at 13,000×g to remove precipitated compound and used to set up hanging-drop crystallization experiments. A reservoir of 2.0 M ammonium sulfate, 0.1 M Tris pH 7, and 3% isopropanol was added to the protein solution in a 1:1 ratio and stored at 20° C. Diffraction-quality crystals with a rod morphology grew within two weeks. The crystals were cryo-protected in 25% glycerol, 2.0M ammonium sulfate, 0.1 M Tris pH 7, and 3% isopropanol. Data was collected at the Advanced Photon Source remotely on the NE-CAT 24-ID-E beam line. […] Crystals were obtained by the hanging-drop method at 20° C. A reservoir of 2.2 M ammonium sulfate, 0.1 M Tris pH 7, and 3% isopropanol mixed in a 1:1 ratio with rhMIF (16 mg/mL) was used to produce 2 μL drops. […] Crystals were cryo-protected with 25% glycerol, 2.2 M ammonium sulfate, 0.1 M Tris pH 7, and 3% isopropanol. […] HKL2000 was used to index, integrate, and scale the MIF-3a data set in the […] space group and the MIF-3b in the P212121 space group. Phases were obtained by molecular replacement with PDB file 3U18 using the CCP4 and PHASER programs. Model building was performed in COOT with iterative restrained refinement with REFMAC.
row,SMILES,binding site in X-ray crystal structure of complex with human MIF
1,"Oc1ccc(-n2cc(-c3ccc4ccccc4n3)nn2)cc1 [Example 3a, 4-(4-(quinolin-2-yl)-1H-1,2,3-triazol-1-yl)phenol]",binding of these inhibitors in the tautomerase active site
2,"COCCOc1ccc2nc(-c3cn(-c4ccc(O)cc4)nn3)ccc2c1 [Example 3b, 4-(4-(6-(2-methoxyethoxy)quinolin-2-yl)-1H-1,2,3-triazol-1-yl)phenol]",binding of these inhibitors in the tautomerase active site
3,"Oc1ccc(-n2cc(-c3ccc4cc(OCCOCCN5CCOCC5)ccc4n3)nn2)cc1 [Example 3v, 4-(4-(6-(2-(2-morpholinoethoxy)ethoxy)quinolin-2-yl)-1H-1,2,3-triazol-1-yl)phenol]",binding of these inhibitors in the tautomerase active site
